Target: HCV NS3 protease (Hepatitis C virus genotype 1b, UniProt P26663)
Format: biochemical

HCV NS3 protease, sequence (P26663 1027-1206, other chains not shown): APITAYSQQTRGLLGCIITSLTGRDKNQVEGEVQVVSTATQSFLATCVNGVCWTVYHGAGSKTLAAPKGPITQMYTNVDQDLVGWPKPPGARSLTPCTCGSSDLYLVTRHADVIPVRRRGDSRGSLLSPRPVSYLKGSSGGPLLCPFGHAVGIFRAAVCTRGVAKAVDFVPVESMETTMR

With `CCOC(=O)/C(C#N)=C/Nc1ccc(S(=O)(=O)c2ccc(N/C=C(\C#N)C(=O)OCC)cc2)cc1` [Compound 14] the “inhibition of the proteolytic activity of HCV NS3 protease” value (“inhibition” below) was “effectively inhibited”.
With `CN(C)/C=C(/C(=O)c1cccs1)c1nnnn1-c1ccccc1` [Compound 25] the “inhibition” value was “effectively inhibited”.
For `O=C(CC1=NCCS1)c1cccs1` [Compound 21], the “inhibition” value was “effectively inhibited”.
With `CCOC(=O)C(=CNc1ccc(S(=O)(=O)c2ccc(NC=C(C(=O)OCC)C(=O)OCC)cc2)cc1)C(=O)OCC` [Compound 20] the “inhibition” value was “effectively inhibited”.
`Cc1cc(S(=O)(=O)c2c([N+](=O)[O-])cc(C(F)(F)F)cc2[N+](=O)[O-])c(Cl)cc1Cl` [Compound 1] was tested, and the “inhibition” value was “effectively inhibited”.

Source: patent US20060019967A1 (priority 2004, published 2006)
